Assay results from patent US20170173002A1, “Compositions and Methods for Treating an Infection” (CMPD LICENSING, LLC, priority 2015, published 2017).

Columns and labels:
[1] = system: Aspergillus flavus; experiment: Expected efficacy of antifungal agents; settings: expected efficacy against Aspergillus flavus
[2] = system: Aspergillus fumigatus; experiment: Expected efficacy of antifungal agents; settings: expected efficacy against Aspergillus fumigatus
[3] = system: Blastomyces dermatitidis; experiment: Expected efficacy of antifungal agents; settings: expected efficacy against Blastomyces dermatitidis
[4] = system: Sporothrix schenckii; experiment: Expected efficacy of antifungal agents; settings: expected efficacy against Sporothrix schenckii
[5] = system: Histoplasma duboisii; settings: expected efficacy against Histoplasma duboisii
[6] = system: Paracoccidioides brasiliensis; experiment: Expected efficacy of antifungal agents; settings: expected efficacy against Paracoccidioides brasiliensis
[7] = system: Trichophyton mentagrophytes; experiment: Expected efficacy of antifungal agents; settings: expected efficacy against Trichophyton mentagrophytes
[8] = system: Coccidioides immitis; settings: expected efficacy against Coccidioides immitis
[9] = system: Trichophyton rubrum; experiment: Expected efficacy of antifungal agents; settings: expected efficacy against Trichophyton rubrum
[10] = system: Candida species; experiment: Expected efficacy of antifungal agents; settings: expected efficacy against Candida species
[11] = system: Cryptococcus neoformans; experiment: Expected efficacy of antifungal agents; settings: expected efficacy against Cryptococcus neoformans

Measured: Efficacy

CCC(C)n1ncn(-c2ccc(N3CCN(c4ccc(OC[C@H]5CO[C@](Cn6cncn6)(c6ccc(Cl)cc6Cl)O5)cc4)CC3)cc2)c1=O (mixture of isomers) [Itraconazole]
yes: [1] | [2] | [3] | [4] | [5] | [6] | [7] | [8] | [9] | [10] | [11]
